Experimental data from patent publication US4552882A, “7-(1-Pyrrolyl) derivatives of 1-ethyl-1,4-dihydro-4-oxoquinoline-3-carboxylic acids and 1-ethyl-1,4-dihydro-4-oxo-1,8-naphthyridine-3-carboxylic acids and their use as antimicrobial agents” (Provesan, SA, priority 1983, dated 1985).
≈ marks a conversion by molar mass, not a printed value.

Key:
Assay in all cases: MIC in vitro
Assay type in all cases: cell-based
[1] = test system: Staphylococcus aureus ATCC 5488/23; details: ATCC5488, Dextrose agar, 37° C., 20 hours
Description: (§1) (G. L. Daquet and Y. A. Chabbect, Techniques en bacteriologie (Bacteriological techniques), vol. 3, Flammarion Medecine Sciences, Paris, 1972 and W. B. Hugo and A. D. Rusell, Pharmaceutical Microbiology, Blackwell Scientific Publications, London, (1977)). Antibiotic medium no. 1 (seed agar) (Oxoid CM 327) Tryptone-soya broth (Oxoid CM 129) Ringer's physiological solution 1/4 (oxoid BR 52) Dextrose agar (BBL-11165) 0.1 N NaOH "Staphylococcus aureus" ATCC 5488/23 Each of the microorganisms is seeded by streaking in tubes of Antibiotic medium No. 1 (seed agar), which are then incubated at 37° C. for 20 hours. Using a culture loop, the cultures are then seeded in tryptone-soyabroth and incubated at 37° C. for 20 hours. The culture obtained is diluted to 1/4 with Ringer's physiological solution, so as to obtain a standardized suspension of 10^7 -10^9 cfu/ml for each organism. Starting from a solution of 1,000 μg/ml in 0.1 N NaOH, each product is diluted in Dextrose agar (previously melted and maintained at 50° C.), with successive dilutions so as to obtain the following concentrations: 64--32--16--8--4--2--1--0.5--0.25--0.125 μg of derivative/ml medium. For each product, the solution of each concentration is subsequently distributed into Petri dishes 10 cm in diameter, with 10 ml of medium per dish and the same number of dishes as microorganisms to be tested. As soon as the medium has cooled, the dishes are seeded with the inoculations using 0.4 ml of inoculation per dish. They are spread with a Driglasky loop and the supernatant is removed. The seeded dishes are incubated at 37° C. for 20 hours.

[2] = test system: Micrococus flavus ATCC 10240; details: Micrococcus flavus, ATCC10240, Dextrose agar, 37° C., 20 hours
Description: as §1, with “"Micrococcus flavus"” for “"Staphylococcus aureus"”, “10240” for “5488/23”

[3] = test system: Klebsiella pneumoniae ATCC 10031; details: ATCC10031, Dextrose agar, 37° C., 20 hours
Description: as §1, with “"Klebsiella pneumoniae"” for “"Staphylococcus aureus"”, “10031” for “5488/23”

Structure (SMILES) | MIC [1] | MIC [2] | MIC [3]
CCn1cc(C(=O)O)c(=O)c2ccc(-n3cccc3)cc21 [Example 1, 7-(1-pyrrolyl)-1-ethyl-1,4-dihydro-4-oxo-3-quinolinecarboxylic acid] | 1 µg/mL (≈ 3.54 µM) | 16 µg/mL (≈ 56.7 µM) | 1 µg/mL (≈ 3.54 µM)
CCn1cc(C(=O)O)c(=O)c2cc(F)c(-n3cccc3)cc21 [Example 2, 6-fluoro-7-(1-pyrrolyl)-1-ethyl-1,4-dihydro-4-oxo-3-quinolinecarboxylic acid] | 0.25 µg/mL (≈ 0.833 µM) | 8 µg/mL (≈ 26.6 µM) | 0.5 µg/mL (≈ 1.67 µM)
CCn1cc(C(=O)O)c(=O)c2ccc(-n3cccc3)nc21 [Example 3, 1-ethyl-1,4-dihydro-4-oxo-7-(1-pyrrolyl)-1,8-naphthyridine-3-carboxylic acid] | 8 µg/mL (≈ 28.2 µM) | 4 µg/mL (≈ 14.1 µM) | 4 µg/mL (≈ 14.1 µM)
CCn1cc(C(=O)O)c(=O)c2cc(F)c(-n3cccc3)nc21 [Example 4, 1-ethyl-1,4-dihydro-4-oxo-6-fluoro-7-(1-pyrrolyl)-1,8-naphthyridine-3-carboxylic acid] | 0.5 µg/mL (≈ 1.66 µM) | 1 µg/mL (≈ 3.32 µM) | 1 µg/mL (≈ 3.32 µM)
CCn1cc(C(=O)O)c(=O)c2cnc(N3CCNCC3)nc21 [Pipemidic acid, reference compound] | 64 µg/mL (≈ 211 µM) | > 64 µg/mL | 2 µg/mL (≈ 6.59 µM)
